According to patent US12508328B2, “Bio-activated reporters to visualize, in real time, specific gene therapy products” (Northwestern University, priority 2019, dated 2025):

Experiments:
β-galactosidase = target: T1, β-galactosidase (Escherichia coli, UniProt P00722); type: biochemical; details: 25° C., TES buffer, 1 mM MgCl2, 150 mM NaCl; for Kcat: 420 nm; for Km: nitro-phenol absorbance 420 nm
T1 construct: purchased Sigma Aldrich
Experimental: Catalytic efficiencies for five substrates, 5a-c, ONPG, and PNPG were evaluated by UV-vis spectroscopy (Table 3). ONPG and PNPG are literature standards that were used to ensure the assay was performed adequately and to serve as benchmarks of activation kinetics in the absence of the GdIII chelate. […] Catalytic efficiency is directly related to the imaging window wherein activation to the r1, on state is competing with clearance.
Enzyme activation kinetics were determined by the method of initial rates for compounds 5a-c via the appearance of the nitrophenol byproduct of activation. The characteristic absorption was monitored at 420 nm. Concentrations of substrate used were 0, 0.05, 0.1, 0.12, 0.15, 0.3, 0.4, 0.5, 0.75, 1, and 2 mM. Each concentration was measured in triplicate and exact concentrations were measured by ICP-MS (see Table 2).

[1] = Relaxivity (1.4 T) in MOPS and MOPS/CO3^2−; type: physicochemical; details: intermolecular series 5a-c, 37° C.
Experimental: While measurements of q indicate how well an agent can restrict water access to the GdIII center, the most important property for a bio-activated contrast agent is the change in relaxivity upon enzymatic cleavage (r1). To evaluate the signal change in the presence of CO32−, relaxivities of the intermolecular activated agents were measured in two different buffer conditions, the non-coordinating buffer MOPS and MOPS/CO32−.
T1 relaxation times were obtained for 5a-c (FIG. 13), and complexes 10a-d (FIG. 14), and 11 at 37° C. at 60 MHz (1.4 T) on a Bruker mq60 minispec spectrometer (Billerica, MA). Three 1 mM solutions of each complex were prepared in four different buffer conditions 1) 10 mm 3-(N-morpholino)propanesulfonic acid (MOPS), 100 mm NaCl, pH 7.4, 2) 10 mm MOPS, 24 mm NaHCO3, 100 mm NaCl, pH 7.4, 3) Dulbecco's Phosphate Buffer (DPBS) pH 7.3 Life Technologies, and 4) b-galactosidase enzyme assay buffer, 200 mm sodium phosphate, 100 mm bmercaptoethanol, 2 mm MgCl2, pH 7.3 (FIG. 15). Three sets of five serial dilutions (about 1 mm, 0.5 mm, 0.25 mm, 0.125 mm and 0.0625 mm) were prepared for each complex. T1 relaxation rates were measured using an inversion recovery pule sequence (t1_ir_mb) with a 10 ms first pulse separation, recycle delay and final pulse separation ≥5 T1. T1 relaxation rates were plotted as a function of GdIII concentrations as determined by ICP-MS, r1/r2 was obtained from linear fit of concentration vs. T1 as described in Equation (1).

[2] = Terbium(III) luminescence: determination of q; type: physicochemical; details: for q (H2O): pure water; for τD2O: D2O; for τH2O: H2O
Experimental: The q number in the absence and presence of CO32− was determined using TbIII analogues (5a′, 5b′, 5c′, and 11′). Given the similarities in chemistry amongst the lanthanides, TbIII luminescence is a convenient and established method for determining the coordination environment in corresponding GdIII chelates. The narrow […] emission at 543 nm and the relatively long lived 0.4 ms excited state lifetime for Tb(H2O)x facilitates accurate assessment of the inner-coordination sphere, differentiating between coordination of OH, OD, NH, and ND oscillators. 38 Luminescent decay curves were fit to the empirically derived Horrock's equation (Eq. 2). It was expected that the ortho position would have the lowest q in the presence of CO32−, creating a “dark” state with the lowest relaxivity.
The number of water molecules directly coordinated to the lanthanide center (q), was determined for each of the TbIII analogues 5a′-c′ (see Table 1), 10a′-d′ (Table 2), and 11′ in MilliQ water and MOPS/carbonate buffer (10 mm MOPS, 24 mm NaHCO3, pH 7.4).
The monoexponential fluorescence decay of an ≈1 mm solution of each complex was determined using a Hitachi F4500 fluorometer (Schaumburg, IL). An excitation wavelength of 308 nm and an emission wavelength of […] were used, and 25 scans were acquired and averaged for each solution. The averaged data was fit with a monoexponential decay function, and the time constant (t) for each solution was determined in triplicate. The fluorescence decay curves of the complexes were measured in both H2O and D2O, and in both buffer and deuterated buffer, obtained by lyophilizing and re-suspending the buffer in D2O three times (FIG. 17A-E). The q values were calculated using the empirically derived Horrock's equation for Tb(III) (Eq. 2): […]

[3] = Horrock's equation for TbIII, MOPS/CO32- buffer pH 7.4
[4] = Tb(III) analogues, emission 543 nm, ambient temperature
[5] = deuterated MOPS/CO32- buffer pH 7.4
[6] = 10a′-d′, Horrock's equation, MOPS/CO3^2− buffer pH 7.4
[7] = 10a′-d′, MOPS/CO3^2− buffer pH 7.4
[8] = 10a′-d′, deuterated MOPS/CO3^2− buffer pH 7.4
[9] = Tb(III) analogues 10a′-d′, emission 543 nm

T1 sequence (P00722 2-1024): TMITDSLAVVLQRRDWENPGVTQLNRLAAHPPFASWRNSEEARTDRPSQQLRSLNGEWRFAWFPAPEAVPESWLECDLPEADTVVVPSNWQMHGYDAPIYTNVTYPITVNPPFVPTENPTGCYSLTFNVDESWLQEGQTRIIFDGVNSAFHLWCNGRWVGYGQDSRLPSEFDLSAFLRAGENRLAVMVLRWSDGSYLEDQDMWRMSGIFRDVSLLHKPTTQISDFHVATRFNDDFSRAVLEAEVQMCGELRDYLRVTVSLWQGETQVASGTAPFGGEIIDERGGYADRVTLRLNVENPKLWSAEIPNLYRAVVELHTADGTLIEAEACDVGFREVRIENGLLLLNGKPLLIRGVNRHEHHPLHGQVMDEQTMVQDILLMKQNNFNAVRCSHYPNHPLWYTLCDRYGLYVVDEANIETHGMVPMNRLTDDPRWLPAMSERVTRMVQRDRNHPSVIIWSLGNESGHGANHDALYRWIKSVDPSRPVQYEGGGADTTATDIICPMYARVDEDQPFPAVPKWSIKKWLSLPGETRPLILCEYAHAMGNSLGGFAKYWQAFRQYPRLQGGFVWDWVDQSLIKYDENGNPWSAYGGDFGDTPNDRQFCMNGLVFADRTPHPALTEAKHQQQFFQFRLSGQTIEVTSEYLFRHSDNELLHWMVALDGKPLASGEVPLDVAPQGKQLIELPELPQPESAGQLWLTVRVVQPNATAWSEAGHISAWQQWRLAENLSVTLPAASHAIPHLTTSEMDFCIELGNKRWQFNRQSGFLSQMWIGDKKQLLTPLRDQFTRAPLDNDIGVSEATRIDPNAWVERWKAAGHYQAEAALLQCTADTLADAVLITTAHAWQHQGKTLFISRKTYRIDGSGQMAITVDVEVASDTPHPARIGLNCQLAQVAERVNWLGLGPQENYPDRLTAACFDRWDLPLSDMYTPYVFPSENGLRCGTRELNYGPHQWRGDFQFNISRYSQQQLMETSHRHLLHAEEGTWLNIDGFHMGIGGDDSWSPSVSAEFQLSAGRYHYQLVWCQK

Compound: O=C([O-])CN1CCN(CCNC(=O)OCc2cc([N+](=O)[O-])ccc2O[C@@H]2O[C@H](CO)[C@H](O)[C@H](O)[C@H]2O)CCN(CC(=O)[O-])CCN(CC(=O)[O-])CC1.[Gd+3] [5a, Gadolinium(III)-1-(2-(2-(1-(4,7,10-triscarboxymethyl-(1,4,7,10tetraazacyclododecyl)))ethylcarbamoyloxymethyl)-4-nitrophenyl)-β-D-galactopyranose]
- Kcat (β-galactosidase): 637 +/− 21.9 S−1
- Km (β-galactosidase): 272 µM
- Δr1 relative to the cleaved complex 11 (percent change in relaxivity, dark to bright) [1]: negative

Compound: O=C([O-])CN1CCN(CCNC(=O)OCc2cc([N+](=O)[O-])ccc2O[C@@H]2O[C@H](CO)[C@H](O)[C@H](O)[C@H]2O)CCN(CC(=O)[O-])CCN(CC(=O)[O-])CC1.[Tb+3] [5a′, Terbium(III)-1-(2-(2-(1-(4,7,10-triscarboxymethyl-(1,4,7,10tetraazacyclododecyl)))ethylcarbamoyloxymethyl)-4-nitrophenyl)-β-D-galactopyranose]
- q (buffer) [2, 3]: 0.2
- q (H2O) ([2]; Horrock's equation for TbIII): 1.1
- τHbuf ([2]; MOPS/CO32- buffer pH 7.4): 1.7(6) ms
- τD2O [2, 4]: 2.2(3) ms
- τH2O [2, 4]: 1.2(8) ms
- τDbuf [2, 5]: 2.2(0) ms

Compound: O=C([O-])CN1CCN(CCNC(=O)OCc2ccc([N+](=O)[O-])c(O[C@@H]3O[C@H](CO)[C@H](O)[C@H](O)[C@H]3O)c2)CCN(CC(=O)[O-])CCN(CC(=O)[O-])CC1.[Gd+3] [5b, Gadolinium(III)-1-(5-(2-(1-(4,7,10-triscarboxymethyl-(1,4,7,10tetraazacyclododecyl)))ethylcarbamoyloxymethyl)-2-nitrophenyl)-β-D-galactopyranose]
- Kcat (β-galactosidase): 679 +/− 135.8 S−1
- Km (β-galactosidase): 791 µM
- Δr1 relative to the cleaved complex 11 (percent change in relaxivity, dark to bright) [1]: 26%

Compound: O=C([O-])CN1CCN(CCNC(=O)OCc2ccc([N+](=O)[O-])c(O[C@@H]3O[C@H](CO)[C@H](O)[C@H](O)[C@H]3O)c2)CCN(CC(=O)[O-])CCN(CC(=O)[O-])CC1.[Tb+3] [5b′, Terbium(III)-1-(5-(2-(1-(4,7,10-triscarboxymethyl-(1,4,7,10tetraazacyclododecyl)))ethylcarbamoyloxymethyl)-2-nitrophenyl)-β-D-galactopyranose]
- q (buffer) [2, 3]: 0
- q (H2O) ([2]; Horrock's equation for TbIII): 0.4
- τHbuf ([2]; MOPS/CO32- buffer pH 7.4): 1.4(2) ms
- τD2O [2, 4]: 1.6(6) ms
- τH2O [2, 4]: 1.3(0) ms
- τDbuf [2, 5]: 1.5(4) ms

Compound: O=C([O-])CN1CCN(CCNC(=O)OCc2ccc(O[C@@H]3O[C@H](CO)[C@H](O)[C@H](O)[C@H]3O)c([N+](=O)[O-])c2)CCN(CC(=O)[O-])CCN(CC(=O)[O-])CC1.[Gd+3] [5c, Gadolinium(III)-1-(4-(2-(1-(4,7,10-triscarboxymethyl-(1,4,7,10tetraazacyclododecyl)))ethylcarbamoyloxymethyl)-2-nitrophenyl)-β-D-galactopyranose]
- Kcat (β-galactosidase): 765 +/− 37.8 S−1
- Km (β-galactosidase): 129 µM
- Δr1 relative to the cleaved complex 11 (percent change in relaxivity, dark to bright) [1]: negative

Compound: O=C([O-])CN1CCN(CCNC(=O)OCc2ccc(O[C@@H]3O[C@H](CO)[C@H](O)[C@H](O)[C@H]3O)c([N+](=O)[O-])c2)CCN(CC(=O)[O-])CCN(CC(=O)[O-])CC1.[Tb+3] [5c′, Terbium(III)-1-(4-(2-(1-(4,7,10-triscarboxymethyl-(1,4,7,10tetraazacyclododecyl)))ethylcarbamoyloxymethyl)-2-nitrophenyl)-β-D-galactopyranose]
- q (buffer) [2, 3]: 0
- q (H2O) ([2]; Horrock's equation for TbIII): 0.7
- τHbuf ([2]; MOPS/CO32- buffer pH 7.4): 1.0(2) ms
- τD2O [2, 4]: 1.1(1) ms
- τH2O [2, 4]: 0.8(9) ms
- τDbuf [2, 5]: 1.0(7) ms

Compound: CCOC(=O)CNc1cc(COC(=O)NCCN2CCN(CC(=O)[O-])CCN(CC(=O)[O-])CCN(CC(=O)[O-])CC2)ccc1O[C@@H]1O[C@H](CO)[C@H](O)[C@H](O)[C@H]1O.[Tb+3] [10a′, Terbium(III)-1-(4-(2-(1-(4,7,10-triscarboxymethyl-(1,4,7,10tetraazacyclododecyl)))ethylcarbamoyloxymethyl)-2-((2-ethoxy-2-oxoethyl)amino)phenyl)-β-D-galactopyranose]
- q (buffer) [2, 6]: 0.3
- q (H2O) ([2]; 10a′-d′, Horrock's equation): 1.3
- τHbuf [2, 7]: 1.7(2) ms
- τDbuf [2, 8]: 2.1(8) ms
- τD2O ([2]; Tb(III) analogues 10a′-d′): 2.1(0) ms
- τH2O [2, 9]: 1.1(4) ms

Compound: CCOC(=O)CCCNc1cc(COC(=O)NCCN2CCN(CC(=O)[O-])CCN(CC(=O)[O-])CCN(CC(=O)[O-])CC2)ccc1O[C@@H]1O[C@H](CO)[C@H](O)[C@H](O)[C@H]1O.[Tb+3] [10b′, Terbium(III)-1-(4-(2-(1-(4,7,10-triscarboxymethyl-(1,4,7,10tetraazacyclododecyl)))ethylcarbamoyloxymethyl)-2-((4-ethoxy-4-oxobutyl)amino)phenyl)-β-D-galactopyranose]
- q (buffer) [2, 6]: 0
- q (H2O) ([2]; 10a′-d′, Horrock's equation): 0.5
- τHbuf [2, 7]: 1.8(9) ms
- τDbuf [2, 8]: 1.8(8) ms
- τD2O ([2]; Tb(III) analogues 10a′-d′): 2.2(6) ms
- τH2O [2, 9]: 1.6(3) ms

Compound: CCOC(=O)CCCCCNc1cc(COC(=O)NCCN2CCN(CC(=O)[O-])CCN(CC(=O)[O-])CCN(CC(=O)[O-])CC2)ccc1O[C@@H]1O[C@H](CO)[C@H](O)[C@H](O)[C@H]1O.[Tb+3] [10c′, Terbium(III)-1-(4-(2-(1-(4,7,10-triscarboxymethyl-(1,4,7,10tetraazacyclododecyl)))ethylcarbamoyloxymethyl)-2-((6-ethoxy-6-oxohexyl)amino)phenyl)-β-D-galactopyranose]
- q (buffer) [2, 6]: 0.1
- q (H2O) ([2]; 10a′-d′, Horrock's equation): 0.1
- τHbuf [2, 7]: 1.9(3) ms
- τDbuf [2, 8]: 2.2(6) ms
- τD2O ([2]; Tb(III) analogues 10a′-d′): 2.2(9) ms
- τH2O [2, 9]: 1.8(9) ms

Compound: CCOC(=O)CCCCCCCNc1cc(COC(=O)NCCN2CCN(CC(=O)[O-])CCN(CC(=O)[O-])CCN(CC(=O)[O-])CC2)ccc1O[C@@H]1O[C@H](CO)[C@H](O)[C@H](O)[C@H]1O.[Tb+3] [10d′, Terbium(III)-1-(4-(2-(1-(4,7,10-triscarboxymethyl-(1,4,7,10tetraazacyclododecyl)))ethylcarbamoyloxymethyl)-2-((8-ethoxy-8-oxooctyl)amino)phenyl)-β-D-galactopyranose]
- q (buffer) [2, 6]: 0.1
- q (H2O) ([2]; 10a′-d′, Horrock's equation): 0.1
- τHbuf [2, 7]: 1.9(7) ms
- τDbuf [2, 8]: 2.0(2) ms
- τD2O ([2]; Tb(III) analogues 10a′-d′): 2.2(6) ms
- τH2O [2, 9]: 1.9(3) ms

Compound: O=[N+]([O-])c1ccccc1O[C@@H]1O[C@H](CO)[C@H](O)[C@H](O)[C@H]1O [ONPG, ortho-nitrophyenyl-[…]-galactoside, reference compound]
- Kcat (β-galactosidase): 600 +/− 29.7 S−1
- Km (β-galactosidase): 120 µM

Compound: O=[N+]([O-])c1ccc(O[C@@H]2O[C@H](CO)[C@H](O)[C@H](O)[C@H]2O)cc1 [PNPG, para-nitrophyenyl-[…]-galactoside, reference compound]
- Kcat (β-galactosidase): 276 +/− 16.9 S−1
- Km (β-galactosidase): 61 µM
